System: PBMC
Assay: Antiinflammatory activity in human PBMC assessed as inhibition of MIF-induced IL-6 production at 100 uM after 21 hrs by ELISA
Format: functional
Settings: not given

SMILES | inhibition at 100 µM [%]
COC(=O)C1(C)CC(c2ccoc2)=NO1 (stereo not given) | 11
FC(F)(F)c1cccc(-n2cc(C3=NOC(CN4CCOCC4)C3)c3ccccc32)c1 (stereo not given) | 36
O=C1c2ccccc2C(=O)N1C1CC(c2ccoc2)=NO1 (stereo not given) | 13
OCCC1CC(c2cn(-c3cccc(C(F)(F)F)c3)c3ccccc23)=NO1 (stereo not given) | 84
COC(=O)CC1(C(=O)OC)CC(c2ccoc2)=NO1 (stereo not given) | 60
c1ccc2c(c1)ccn2CC1CC(c2ccoc2)=NO1 (stereo not given) | 6

Target: T1, Macrophage migration inhibitory factor (Homo sapiens) (UniProt P14174)
T1 sequence (whole entry): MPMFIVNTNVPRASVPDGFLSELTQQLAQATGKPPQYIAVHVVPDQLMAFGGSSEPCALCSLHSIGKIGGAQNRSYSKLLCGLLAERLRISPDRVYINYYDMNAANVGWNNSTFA
Assay: Inhibition of human purified MIF tautomerase activity at 10 uM after 30 mins
Settings: not given

SMILES | inhibition [%]
COC(=O)C1(C)CC(c2ccoc2)=NO1 (stereo not given) | 22
FC(F)(F)c1cccc(-n2cc(C3=NOC(CN4CCOCC4)C3)c3ccccc32)c1 (stereo not given) | 10
O=C1c2ccccc2C(=O)N1C1CC(c2ccoc2)=NO1 (stereo not given) | 0
OCCC1CC(c2cn(-c3cccc(C(F)(F)F)c3)c3ccccc23)=NO1 (stereo not given) | 0
COC(=O)CC1(C(=O)OC)CC(c2ccoc2)=NO1 (stereo not given) | 23
c1ccc2c(c1)ccn2CC1CC(c2ccoc2)=NO1 (stereo not given) | 26

System: PBMC
Assay: Antiinflammatory activity in human PBMC assessed as inhibition of MIF-induced IL-6 production at 30 uM after 21 hrs by ELISA
Format: functional
Settings: not given

SMILES | inhibition at 30 µM [%]
COC(=O)C1(C)CC(c2ccoc2)=NO1 (stereo not given) | 0
FC(F)(F)c1cccc(-n2cc(C3=NOC(CN4CCOCC4)C3)c3ccccc32)c1 (stereo not given) | 22
O=C1c2ccccc2C(=O)N1C1CC(c2ccoc2)=NO1 (stereo not given) | 9
OCCC1CC(c2cn(-c3cccc(C(F)(F)F)c3)c3ccccc23)=NO1 (stereo not given) | 60
COC(=O)CC1(C(=O)OC)CC(c2ccoc2)=NO1 (stereo not given) | 53
c1ccc2c(c1)ccn2CC1CC(c2ccoc2)=NO1 (stereo not given) | 0

Target: T1, Macrophage migration inhibitory factor (Homo sapiens)
Assay: Inhibition of human purified MIF tautomerase activity at 100 uM after 30 mins
Settings: not given

SMILES | inhibition [%]
COC(=O)C1(C)CC(c2ccoc2)=NO1 (stereo not given) | 22
FC(F)(F)c1cccc(-n2cc(C3=NOC(CN4CCOCC4)C3)c3ccccc32)c1 (stereo not given) | 100
O=C1c2ccccc2C(=O)N1C1CC(c2ccoc2)=NO1 (stereo not given) | 0
OCCC1CC(c2cn(-c3cccc(C(F)(F)F)c3)c3ccccc23)=NO1 (stereo not given) | 91
COC(=O)CC1(C(=O)OC)CC(c2ccoc2)=NO1 (stereo not given) | 47
c1ccc2c(c1)ccn2CC1CC(c2ccoc2)=NO1 (stereo not given) | 100

System: PBMC
Assay: Antiinflammatory activity in human PBMC assessed as inhibition of MIF-induced TNFalpha production at 100 uM after 21 hrs by ELISA
Format: functional
Settings: not given

SMILES | inhibition at 100 µM [%]
COC(=O)C1(C)CC(c2ccoc2)=NO1 (stereo not given) | 30
FC(F)(F)c1cccc(-n2cc(C3=NOC(CN4CCOCC4)C3)c3ccccc32)c1 (stereo not given) | 42
O=C1c2ccccc2C(=O)N1C1CC(c2ccoc2)=NO1 (stereo not given) | 26
OCCC1CC(c2cn(-c3cccc(C(F)(F)F)c3)c3ccccc23)=NO1 (stereo not given) | 88
COC(=O)CC1(C(=O)OC)CC(c2ccoc2)=NO1 (stereo not given) | 4
c1ccc2c(c1)ccn2CC1CC(c2ccoc2)=NO1 (stereo not given) | 30

System: not listed separately
Assay: Cytotoxicity against human PBMC assessed as cell viability measured during cytokines production assay at 100 uM after 21 hrs by MTS assay
Format: cell-based
Settings: PBMC (peripheral blood mononuclear cells)

SMILES | cytotoxicity at 21 h, 100 µM [%]
COC(=O)C1(C)CC(c2ccoc2)=NO1 (stereo not given) | 1
FC(F)(F)c1cccc(-n2cc(C3=NOC(CN4CCOCC4)C3)c3ccccc32)c1 (stereo not given) | 10
O=C1c2ccccc2C(=O)N1C1CC(c2ccoc2)=NO1 (stereo not given) | 12
OCCC1CC(c2cn(-c3cccc(C(F)(F)F)c3)c3ccccc23)=NO1 (stereo not given) | 9
COC(=O)CC1(C(=O)OC)CC(c2ccoc2)=NO1 (stereo not given) | 8
c1ccc2c(c1)ccn2CC1CC(c2ccoc2)=NO1 (stereo not given) | 6

Target: T1, Macrophage migration inhibitory factor (Homo sapiens)
Assay: Inhibition of MIF in human PBMC assessed as MIF secretion at 100 uM after 5 hrs by ELISA
Settings: not given

SMILES | inhibition [%]
COC(=O)C1(C)CC(c2ccoc2)=NO1 (stereo not given) | 0
FC(F)(F)c1cccc(-n2cc(C3=NOC(CN4CCOCC4)C3)c3ccccc32)c1 (stereo not given) | 0
O=C1c2ccccc2C(=O)N1C1CC(c2ccoc2)=NO1 (stereo not given) | 83
OCCC1CC(c2cn(-c3cccc(C(F)(F)F)c3)c3ccccc23)=NO1 (stereo not given) | 0
COC(=O)CC1(C(=O)OC)CC(c2ccoc2)=NO1 (stereo not given) | 0
c1ccc2c(c1)ccn2CC1CC(c2ccoc2)=NO1 (stereo not given) | 95

Target: T1, Macrophage migration inhibitory factor (Homo sapiens)
Assay: Inhibition of MIF in human PBMC assessed as MIF secretion at 10 uM after 5 hrs by ELISA
Settings: not given

SMILES | inhibition [%]
COC(=O)C1(C)CC(c2ccoc2)=NO1 (stereo not given) | 0
FC(F)(F)c1cccc(-n2cc(C3=NOC(CN4CCOCC4)C3)c3ccccc32)c1 (stereo not given) | 0
O=C1c2ccccc2C(=O)N1C1CC(c2ccoc2)=NO1 (stereo not given) | 49
OCCC1CC(c2cn(-c3cccc(C(F)(F)F)c3)c3ccccc23)=NO1 (stereo not given) | 0
COC(=O)CC1(C(=O)OC)CC(c2ccoc2)=NO1 (stereo not given) | 0
c1ccc2c(c1)ccn2CC1CC(c2ccoc2)=NO1 (stereo not given) | 68

System: not listed separately
Assay: Cytotoxicity against human PBMC assessed as cell viability measured during MIF secretion assay at 100 uM after 21 hrs by MTS assay
Format: cell-based
Settings: PBMC (peripheral blood mononuclear cells)

SMILES | cytotoxicity at 21 h, 100 µM [%]
COC(=O)C1(C)CC(c2ccoc2)=NO1 (stereo not given) | 4
FC(F)(F)c1cccc(-n2cc(C3=NOC(CN4CCOCC4)C3)c3ccccc32)c1 (stereo not given) | 65
O=C1c2ccccc2C(=O)N1C1CC(c2ccoc2)=NO1 (stereo not given) | 0
OCCC1CC(c2cn(-c3cccc(C(F)(F)F)c3)c3ccccc23)=NO1 (stereo not given) | 0
COC(=O)CC1(C(=O)OC)CC(c2ccoc2)=NO1 (stereo not given) | 7
c1ccc2c(c1)ccn2CC1CC(c2ccoc2)=NO1 (stereo not given) | 0

System: PBMC
Assay: Antiinflammatory activity in human PBMC assessed as inhibition of MIF-induced IL1-beta production at 100 uM after 21 hrs by ELISA
Format: functional
Settings: not given

SMILES | inhibition at 100 µM [%]
COC(=O)C1(C)CC(c2ccoc2)=NO1 (stereo not given) | 39
FC(F)(F)c1cccc(-n2cc(C3=NOC(CN4CCOCC4)C3)c3ccccc32)c1 (stereo not given) | 51
O=C1c2ccccc2C(=O)N1C1CC(c2ccoc2)=NO1 (stereo not given) | 12
OCCC1CC(c2cn(-c3cccc(C(F)(F)F)c3)c3ccccc23)=NO1 (stereo not given) | 88
COC(=O)CC1(C(=O)OC)CC(c2ccoc2)=NO1 (stereo not given) | 57
c1ccc2c(c1)ccn2CC1CC(c2ccoc2)=NO1 (stereo not given) | 19
